{"source": "paper PMC6340402", "about": "(Chemical Science, 2018)", "tested_on": "HeLa cells", "assay": "Cellular uptake in HeLa cells by confocal laser scanning microscopy", "format": "cell-based", "conditions": "30 minutes, 37 °C, serum-containing medium, Fig. 3", "data": [{"substance": "FITC-Ahx-Arg-Arg-Arg-Arg-tetrazine-BCN-Arg-Arg-Arg-Arg-NH2 [R4-b-R4]", "values": [{"measurement": "cellular uptake (CLSM, FITC fluorescence)", "setting": "all concentrations (5, 10, 15 and 20 μM)", "result": "taken up at all concentrations"}, {"measurement": "mechanism of uptake at the higher concentrations (CLSM)", "setting": "higher concentrations", "result": "strong cytosolic uptake"}]}]}
